The text below walks through data of PubChem BioAssay AID977605 (Broad Institute, 2014).

The source made the active and inactive calls.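 How the source made its calls: active means fitted curve reaches 40% activation below the top valid tested dose, in every test run; inconclusive means test runs disagree on the call; inactive means the rest, including effects opposite to the expected direction.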

A short description of one assay: E-selectin inducers in HUVECs, dose response, imaging, HUVEC, cherry-picked samples (AID 977605).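 Further: signal is the share of imaged cells scored positive for E-selectin.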 Particulars: HUVEC E-selectin immunostaining, at 19.5 µM (top of the series), percent of TNF-alpha response over vehicle.
Take `COc1ccc([C@H]2CC(=O)C[C@@H](CCn3nnc4ccccc43)O2)cc1`: the activation is 0.021% (inactive).

Consider `C[C@@H]1CN([C@H](C)CO)C(=O)c2cc(NC(=O)Nc3ccc(F)cc3)ccc2O[C@H]1CN(C)S(=O)(=O)c1cccs1`, for which the activation was 0.059% (inactive). On the same count and under the same terms, with `C[C@@H]1CN([C@@H](C)CO)C(=O)c2cccc(NC(=O)c3ccc(-c4nccs4)cc3)c2O[C@H]1CN(C)Cc1ccc(Oc2ccccc2)cc1` the figure was 3.4% (inactive); with `C[C@H](CO)N1C[C@H](C)[C@H](CN(C)C(=O)Nc2ccccc2)Oc2c(NS(=O)(=O)c3cccs3)cccc2C1=O`, -0.044% (inactive).

Consider `C[C@@H]1CN([C@H](C)CO)C(=O)Cc2cc(NC(=O)c3ccncc3)ccc2O[C@H]1CN(C)S(C)(=O)=O`, for which the activation was -0.058% (inactive). Same read-out and setting: with `CCOC(=O)N1CCN(c2c(N3CCOCC3)c(=O)c2=O)CC1` the figure was 7.45% (inactive); with `COc1ccc(CN(C)C[C@@H]2Oc3ccc(NC(=O)Nc4ccc(F)cc4)cc3CC(=O)N([C@H](C)CO)C[C@@H]2C)cc1`, -0.068% (inactive); with `COc1ccc(NC(=O)Nc2cccc3c2O[C@H](CN(C)Cc2ccc(C(=O)Nc4ccccc4N)cc2)[C@H](C)CN([C@H](C)CO)C3=O)cc1`, 1.32% (inactive). On the same count and under the same terms, the figure for `CC1CCN(c2nc3c(=O)[nH]c(N)nc3n2[C@@H]2O[C@H](CO)[C@@H](O)[C@H]2O)CC1` is 0.131% (inactive). Same read-out and setting: the figure for `CCC(=O)c1ccc(OCC(=O)NNC(=O)c2cc(C)oc2C)cc1` is -0.03% (inactive); for `COc1ccc(S(=O)(=O)Nc2ccc3c(c2)C(=O)N([C@@H](C)CO)C[C@H](C)[C@@H](CN(C)C(=O)Nc2cccc4ccccc24)O3)cc1` it is -0.208% (inactive). Consider `Cc1noc(C)c1NC(=O)N(C)C[C@@H]1Oc2ccc(NC(=O)Cn3cnnn3)cc2C(=O)N([C@@H](C)CO)C[C@@H]1C`, for which the activation was -0.143% (inactive). Take `Cc1ccc(S(=O)(=O)N2CCN(C(=O)Cc3sc(C)nc3-c3ccc(F)cc3)CC2)c(C)c1`: the activation was -0.025% (inactive).

Consider `COc1ccccc1-c1nnc(NC(=O)CSc2nncn2C)s1`, for which the activation was -0.056% (inactive). Regarding `O=S(=O)(Nc1cccc2[nH]ncc12)c1cccs1`, the activation was -0.069% (inactive). Same read-out and setting: with `C[C@@H]1CN([C@H](C)CO)C(=O)c2cc(NC(=O)Cn3cnnn3)ccc2O[C@@H]1CN(C)Cc1ccc(Oc2ccccc2)cc1` the figure was -0.117% (inactive). As to `Cc1cc(NC(=O)CCC(=O)N(c2ccccc2)C(C(=O)NC2CCCC2)c2ccc(F)cc2)no1` (configuration not stated), the activation was 0.168% (inactive). The same measure, in the same setting: the figure for `Cc1ccc(NC(=O)CN2CCOCC2)cc1Cl` is 0.043% (inactive); for `Cc1noc(C)c1S(=O)(=O)Nc1ccc2c(c1)C(=O)N([C@@H](C)CO)C[C@@H](C)[C@@H](CN(C)Cc1ccc3c(c1)OCO3)O2` it is -0.115% (inactive). Same read-out and setting: the figure for `C[C@@H]1CN([C@@H](C)CO)C(=O)c2cccc(NC(=O)Nc3ccccc3)c2O[C@H]1CN(C)S(=O)(=O)c1ccccc1` is 0.91% (inactive); for `O=S(=O)(NCc1csc(-c2cccs2)n1)c1ccc(Cl)cc1` it is 0.045% (inactive).

As to `C[C@@H]1CN([C@H](C)CO)C(=O)Cc2cc(NS(C)(=O)=O)ccc2O[C@@H]1CN(C)S(=O)(=O)c1cn(C)cn1`, the activation was 13.4% (inactive).

Take `Cc1cc(C(=O)Nc2cccc3c2O[C@@H](CN(C)S(=O)(=O)c2ccc(F)cc2)[C@@H](C)CN([C@H](C)CO)C3=O)n(C)n1`: the activation was 0.077% (inactive). As for `CC(C)NC(=O)N(C)C[C@H]1Oc2c(NC(=O)c3ccc(-c4nccs4)cc3)cccc2C(=O)N([C@@H](C)CO)C[C@H]1C`, the activation was 2.24% (inactive).

In the case of `Cc1ccc(-n2ncc3c(=O)[nH]c(SC(C)C)nc32)cc1`, the activation is 0.023% (inactive). Still for that read-out and setting: the figure for `C[C@H](CO)N1C[C@H](C)[C@@H](CN(C)Cc2ccccc2)Oc2c(NC(=O)C3CC3)cccc2C1=O` is -0.084% (inactive). With `C[C@@H]1CN([C@@H](C)CO)C(=O)c2cc(NC(=O)Cc3cn(C)c4ccccc34)ccc2O[C@H]1CN(C)Cc1ccc2c(c1)OCO2`, the activation was -0.066% (inactive). For the compound `CC(C)(C)c1ccc(C(=O)Nc2ccc3c(c2)C(=O)NC3=O)cc1`, the activation was 0.042% (inactive). On the same count and under the same terms, with `Cc1noc(C)c1NC(=O)Nc1ccc2c(c1)CC(=O)N([C@@H](C)CO)C[C@H](C)[C@@H](CN(C)C(=O)Nc1ccc(F)cc1)O2` the figure was -0.02% (inactive); with `O=C(NCc1ccc(F)cc1)c1cc(C2CCCCN2C(=O)CCCc2ccccc2)on1` (configuration not stated), -0.164% (inactive). Consider `COc1ccc(S(=O)(=O)Nc2cccc3c2O[C@H](CN(C)C(=O)Nc2c(C)noc2C)[C@H](C)CN([C@@H](C)CO)C3=O)cc1`, for which the activation was -0.052% (inactive). With `COc1ccc(NC(=O)Nc2cccc3c2O[C@@H](CN(C)C(=O)NC2CCCCC2)[C@@H](C)CN([C@H](C)CO)C3=O)cc1`, the activation was 0.334% (inactive).

In the case of `C[C@@H]1CN([C@@H](C)CO)C(=O)Cc2cc(NC(=O)Cc3cn(C)c4ccccc34)ccc2O[C@H]1CN(C)Cc1ccc(C(F)(F)F)cc1`, the activation was 1.99% (inactive). Still for that read-out and setting: the figure for `COc1ccc(C2c3[nH]c4ccccc4c3C[C@H]3C(=O)N(CC(C)C)CC(=O)N23)c(OC)c1` (some centres not stated) is 0.036% (inactive); for `COc1ccc(S(=O)(=O)N(C)C[C@H]2Oc3ccc(NC(=O)Nc4ccc5c(c4)OCO5)cc3CC(=O)N([C@H](C)CO)C[C@@H]2C)cc1` it is 0.086% (inactive). Same read-out and setting: with `C[C@@H]1CN([C@@H](C)CO)C(=O)c2cc(NC(=O)Nc3ccc(C(F)(F)F)cc3)ccc2O[C@H]1CN(C)S(=O)(=O)c1ccccc1` the figure was -0.17% (inactive); with `C[C@H]1CN([C@@H](C)CO)C(=O)c2cc(NC(=O)Cn3cnnn3)ccc2O[C@H]1CN(C)S(=O)(=O)c1ccccc1`, -0.003% (inactive); with `C[C@H]1CN([C@@H](C)CO)C(=O)c2cc(NC(=O)CCN3CCOCC3)ccc2O[C@@H]1CN(C)Cc1ccncc1`, 0.277% (inactive). Same read-out and setting: with `COc1ccc(S(=O)(=O)N(C)C[C@@H]2Oc3c(NS(=O)(=O)c4ccc(F)cc4)cccc3C(=O)N([C@H](C)CO)C[C@@H]2C)cc1` the figure was -0.15% (inactive); with `C[C@H](CO)N1C[C@H](C)[C@H](CN(C)Cc2ccc3c(c2)OCO3)Oc2ccc(NC(=O)Cn3cnnn3)cc2C1=O`, 2.56% (inactive); with `c1ccc(Nc2nnc(-c3cccnc3)s2)cc1`, 0.863% (inactive). With `CCC(CC)NC(=O)Nc1ccc(F)c(Cl)c1`, the activation was 0.516% (inactive). The same measure, in the same setting: with `C[C@@H]1CN([C@H](C)CO)C(=O)c2cccc(NC(=O)C3CC3)c2O[C@@H]1CN(C)Cc1ccccc1` the figure was 0.474% (inactive); with `CC(C)NC(=O)N(C)C[C@H]1Oc2ccc(NC(=O)CCN3CCOCC3)cc2C(=O)N([C@@H](C)CO)C[C@H]1C`, -0.017% (inactive). Same read-out and setting: the figure for `C[C@H]1CN([C@@H](C)CO)C(=O)c2cc(NS(=O)(=O)c3cn(C)cn3)ccc2O[C@@H]1CN(C)Cc1ccncc1` is -0.214% (inactive); for `C[C@H](CO)N1C[C@H](C)[C@H](CN(C)CC2CCCCC2)Oc2ccc(NC(=O)Nc3ccc4c(c3)OCO4)cc2C1=O` it is -0.185% (inactive); for `COC(=O)C[C@@H]1CC[C@@H]2[C@H](COc3ccc(NC(=O)Nc4cccc(F)c4)cc3C(=O)N2C)O1` it is -0.161% (inactive). Turning to `CC(C)NC(=O)Nc1ccc2c(c1)CC(=O)N([C@@H](C)CO)C[C@H](C)[C@H](CN(C)Cc1ccc(C(=O)O)cc1)O2`, the activation was 0.025% (inactive). The same measure, in the same setting: with `COc1ccc(C#Cc2ccc3c(c2)O[C@@H](CN(C)C(=O)Nc2cccc(OC)c2)[C@H](C)CN([C@@H](C)CO)S3(=O)=O)cc1` the figure was 4.46% (inactive); with `C[C@H]1CN([C@@H](C)CO)C(=O)c2cccc(NC(=O)c3ccc(-c4nccs4)cc3)c2O[C@@H]1CN(C)Cc1ccc(Cl)c(Cl)c1`, 4.07% (inactive); with `COc1cccc(CCC(=O)N2CCC(n3nccc3NC(=O)CC(C)C)CC2)c1`, -0.002% (inactive).

Staying with this assay, now noted: HUVEC E-selectin immunostaining, at 21 µM (top of the series), percent of TNF-alpha response over vehicle.
Regarding `C[C@@H]1CN([C@H](C)CO)C(=O)c2cc(NS(=O)(=O)c3cn(C)cn3)ccc2O[C@H]1CN(C)Cc1ccncc1`, the activation is -0.069% (inactive). The same measure, in the same setting: the figure for `C[C@@H]1CN([C@H](C)CO)C(=O)Cc2cc(NC(=O)Nc3ccc(C(F)(F)F)cc3)ccc2O[C@H]1CN(C)Cc1ccc(Oc2ccccc2)cc1` is -0.245% (inactive). The same measure, in the same setting: the figure for `Cc1noc(C)c1NC(=O)Nc1ccc2c(c1)CC(=O)N([C@@H](C)CO)C[C@@H](C)[C@@H](CN(C)Cc1ccc(Cl)c(Cl)c1)O2` is 3.17% (inactive). Still for that read-out and setting: with `CC(C)NC(=O)Nc1cccc2c1O[C@H](CN(C)Cc1ccncc1)[C@@H](C)CN([C@H](C)CO)C2=O` the figure was 0.115% (inactive). For `C[C@H](CO)N1C[C@H](C)[C@@H](CN(C)S(=O)(=O)c2ccc(F)cc2)Oc2ccc(NS(C)(=O)=O)cc2CC1=O`, the activation is 0.279% (inactive).

`COc1ccc(CN(C)C[C@@H]2Oc3c(NC(=O)c4cnccn4)cccc3C(=O)N([C@@H](C)CO)C[C@H]2C)cc1`: the activation is -0.033% (inactive).

Turning to `CC(C)NC(=O)N(C)C[C@H]1Oc2ccc(NC(=O)CCN3CCOCC3)cc2C(=O)N([C@H](C)CO)C[C@@H]1C`, the activation was 0.008% (inactive). Consider `C[C@@H]1CN([C@H](C)CO)C(=O)c2cccc(NC(=O)C3CC3)c2O[C@H]1CN(C)CC1CC1`, for which the activation is -0.061% (inactive).

With `C[C@@H]1CN([C@H](C)CO)S(=O)(=O)c2ccc(-c3ccncc3)cc2O[C@H]1CN(C)Cc1ccc(Oc2ccccc2)cc1`, the activation was 23.2% (inactive). The same measure, in the same setting: the figure for `COc1ccc(NC(=O)N(C)C[C@@H]2Oc3ccc(NC(=O)c4ccncc4)cc3CC(=O)N([C@@H](C)CO)C[C@@H]2C)cc1` is -0.09% (inactive); for `C[C@@H]1CN([C@H](C)CO)C(=O)Cc2cc(NC(=O)Nc3ccc(F)cc3)ccc2O[C@@H]1CN(C)S(=O)(=O)c1cn(C)cn1` it is -0.103% (inactive).
